Measured values from ChEMBL document CHEMBL1137777, “Design, synthesis, and evaluation of indolinones as triple angiokinase inhibitors and the discovery of a highly specific 6-methoxycarbonyl-substituted indolinone (BIBF 1120)” (J Med Chem, 2009).

Tests used:
[1] = tested on: HUVEC; assay: cells; settings: Homo sapiens, 3 h
Description: Antiangiogenic activity in HUVEC assessed as inhibition of VEGF-induced cell proliferation by [3H]thymidine incorporation assay

[2] = biological target: Vascular endothelial growth factor receptor 2 (Homo sapiens, UniProt P35968); assay: Inhibition of human VEGFR2 expressed in Sf9 cells
[3] = Half life in NMRI nu/nu mouse at 50 mg/kg, po administered as single dose; assay type: ADME, organism-based; set-up: dose 50 mg/kg, route oral; settings: in vivo
[4] = biological target: Vascular endothelial growth factor receptor 1 (Homo sapiens, UniProt P17948)
Description: Inhibition of human VEGFR1

[5] = AUC in NMRI nu/nu mouse at 50 mg/kg, po administered as single dose; assay type: ADME, organism-based, Plasma; set-up: dose 50 mg/kg, route oral; settings: NMRI nu/nu, plasma
[6] = biological target: Platelet-derived growth factor receptor alpha (Homo sapiens, UniProt P16234)
Description: Inhibition of human PDGFRalpha

[7] = biological target: Fibroblast growth factor receptor 1 (Homo sapiens, UniProt P11362)
Description: Inhibition of human FGFR1

[8] = tested on: HeLa; assay: Antiangiogenic activity against human HeLa cells assessed as inhibition of cell proliferation by [3H]thymidine incorporation assay; assay type: functional, cell-based
[9] = biological target: Vascular endothelial growth factor receptor 3 (Homo sapiens, UniProt P35916)
Description: Inhibition of human VEGFR3

[10] = Cmax in NMRI nu/nu mouse at 50 mg/kg, po administered as single dose; assay type: ADME, organism-based; set-up: dose 50 mg/kg, route oral; settings: in vivo
[11] = biological target: Cyclin-dependent kinase 1 (Homo sapiens, UniProt P06493); assay: Inhibition of human CDK1
[12] = biological target: Receptor tyrosine-protein kinase erbB-2 (Homo sapiens, UniProt P04626); assay: Inhibition of human HER2
[13] = biological target: Insulin receptor (Homo sapiens, UniProt P06213); assay: Inhibition of human InsR
Chain of Insulin receptor (P06213 28-758 limits assumed): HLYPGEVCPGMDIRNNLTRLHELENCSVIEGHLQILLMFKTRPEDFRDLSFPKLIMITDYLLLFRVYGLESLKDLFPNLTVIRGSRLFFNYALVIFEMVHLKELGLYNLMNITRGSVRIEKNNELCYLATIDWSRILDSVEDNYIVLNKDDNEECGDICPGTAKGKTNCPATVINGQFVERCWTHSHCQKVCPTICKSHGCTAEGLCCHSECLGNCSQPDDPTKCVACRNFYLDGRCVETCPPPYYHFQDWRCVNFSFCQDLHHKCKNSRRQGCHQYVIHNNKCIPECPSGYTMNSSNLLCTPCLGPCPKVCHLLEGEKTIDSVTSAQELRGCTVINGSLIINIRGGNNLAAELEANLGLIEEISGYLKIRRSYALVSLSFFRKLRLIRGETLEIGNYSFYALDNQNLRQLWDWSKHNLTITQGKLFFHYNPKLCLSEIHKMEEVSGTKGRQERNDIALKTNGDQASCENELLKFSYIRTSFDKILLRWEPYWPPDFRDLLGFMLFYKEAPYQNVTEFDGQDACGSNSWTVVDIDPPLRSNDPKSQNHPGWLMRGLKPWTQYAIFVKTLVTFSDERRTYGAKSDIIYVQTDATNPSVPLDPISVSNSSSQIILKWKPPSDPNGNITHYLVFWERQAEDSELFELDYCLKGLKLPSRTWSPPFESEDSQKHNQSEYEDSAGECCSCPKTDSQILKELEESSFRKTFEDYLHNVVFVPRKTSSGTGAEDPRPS
Chain of Insulin receptor (P06213 763-1382 limits assumed): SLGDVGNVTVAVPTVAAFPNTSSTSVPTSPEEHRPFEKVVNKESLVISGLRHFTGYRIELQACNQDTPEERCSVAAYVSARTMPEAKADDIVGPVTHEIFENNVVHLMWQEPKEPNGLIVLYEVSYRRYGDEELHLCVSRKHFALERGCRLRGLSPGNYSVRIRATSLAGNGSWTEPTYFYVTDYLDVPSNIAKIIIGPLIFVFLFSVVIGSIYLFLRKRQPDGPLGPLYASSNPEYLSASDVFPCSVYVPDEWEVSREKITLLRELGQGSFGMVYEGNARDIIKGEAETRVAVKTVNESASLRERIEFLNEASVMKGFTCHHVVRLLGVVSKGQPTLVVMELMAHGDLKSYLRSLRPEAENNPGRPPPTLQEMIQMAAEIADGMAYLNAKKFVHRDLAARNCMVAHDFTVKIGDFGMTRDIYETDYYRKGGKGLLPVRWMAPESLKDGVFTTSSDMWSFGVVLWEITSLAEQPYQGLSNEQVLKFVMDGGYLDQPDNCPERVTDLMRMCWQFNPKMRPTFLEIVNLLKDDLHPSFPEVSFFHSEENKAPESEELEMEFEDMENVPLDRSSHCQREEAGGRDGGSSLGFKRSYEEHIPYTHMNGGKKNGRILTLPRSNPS

[14] = biological target: Serine/threonine-protein kinase PLK1 (Homo sapiens, UniProt P53350); assay: Inhibition of human Plk1
Chain of Serine/threonine-protein kinase PLK1 (P53350 whole entry): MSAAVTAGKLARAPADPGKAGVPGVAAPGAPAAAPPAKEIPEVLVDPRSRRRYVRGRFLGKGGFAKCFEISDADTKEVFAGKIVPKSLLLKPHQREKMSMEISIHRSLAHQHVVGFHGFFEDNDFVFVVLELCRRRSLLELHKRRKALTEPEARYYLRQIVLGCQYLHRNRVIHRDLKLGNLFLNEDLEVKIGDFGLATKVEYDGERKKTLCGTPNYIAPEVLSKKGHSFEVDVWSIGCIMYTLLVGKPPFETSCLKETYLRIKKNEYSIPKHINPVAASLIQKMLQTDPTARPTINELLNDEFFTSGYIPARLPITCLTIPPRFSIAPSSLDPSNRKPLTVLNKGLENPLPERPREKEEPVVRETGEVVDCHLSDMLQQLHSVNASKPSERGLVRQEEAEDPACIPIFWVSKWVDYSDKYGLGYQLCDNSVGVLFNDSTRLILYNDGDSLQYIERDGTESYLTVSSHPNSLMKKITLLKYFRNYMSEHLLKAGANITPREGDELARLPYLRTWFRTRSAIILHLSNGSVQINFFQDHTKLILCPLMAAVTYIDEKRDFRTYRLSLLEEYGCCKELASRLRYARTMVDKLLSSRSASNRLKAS

[15] = biological target: Epidermal growth factor receptor (Homo sapiens, UniProt P00533); assay: Inhibition of human EGFR
[16] = biological target: Cyclin-dependent kinase 4 (Homo sapiens, UniProt P11802); assay: Inhibition of human CDK4
Chain of Cyclin-dependent kinase 4 (P11802 whole entry): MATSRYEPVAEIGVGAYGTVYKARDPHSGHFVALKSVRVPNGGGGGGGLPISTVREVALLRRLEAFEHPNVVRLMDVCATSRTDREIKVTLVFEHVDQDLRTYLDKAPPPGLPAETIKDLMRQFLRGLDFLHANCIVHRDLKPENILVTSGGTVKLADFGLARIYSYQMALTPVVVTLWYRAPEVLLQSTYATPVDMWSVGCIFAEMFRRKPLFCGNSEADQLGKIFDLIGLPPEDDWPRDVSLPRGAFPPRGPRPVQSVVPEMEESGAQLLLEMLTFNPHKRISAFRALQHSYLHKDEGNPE

[17] = biological target: Insulin-like growth factor 1 receptor (Homo sapiens, UniProt P08069); assay: Inhibition of human IGFR1
Chain of Insulin-like growth factor 1 receptor (P08069 31-736 limits assumed): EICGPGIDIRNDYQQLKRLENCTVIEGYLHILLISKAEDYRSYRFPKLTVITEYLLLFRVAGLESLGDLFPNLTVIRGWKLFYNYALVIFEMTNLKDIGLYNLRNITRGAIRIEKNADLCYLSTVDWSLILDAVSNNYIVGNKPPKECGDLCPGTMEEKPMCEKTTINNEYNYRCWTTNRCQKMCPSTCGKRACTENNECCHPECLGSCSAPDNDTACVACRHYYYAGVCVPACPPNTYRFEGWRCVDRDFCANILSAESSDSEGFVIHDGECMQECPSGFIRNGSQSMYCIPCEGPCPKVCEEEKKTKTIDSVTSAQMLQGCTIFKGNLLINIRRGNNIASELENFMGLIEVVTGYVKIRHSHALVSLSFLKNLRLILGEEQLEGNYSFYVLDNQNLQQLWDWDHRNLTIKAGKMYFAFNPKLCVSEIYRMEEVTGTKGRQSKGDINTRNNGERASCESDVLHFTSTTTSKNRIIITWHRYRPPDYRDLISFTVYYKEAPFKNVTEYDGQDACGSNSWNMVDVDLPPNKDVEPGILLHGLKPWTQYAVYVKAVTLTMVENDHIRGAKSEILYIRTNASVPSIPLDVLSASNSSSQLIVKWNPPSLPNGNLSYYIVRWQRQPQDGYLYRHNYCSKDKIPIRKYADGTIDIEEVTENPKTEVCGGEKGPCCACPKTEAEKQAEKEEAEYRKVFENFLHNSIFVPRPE
Chain of Insulin-like growth factor 1 receptor (P08069 741-1367 limits assumed): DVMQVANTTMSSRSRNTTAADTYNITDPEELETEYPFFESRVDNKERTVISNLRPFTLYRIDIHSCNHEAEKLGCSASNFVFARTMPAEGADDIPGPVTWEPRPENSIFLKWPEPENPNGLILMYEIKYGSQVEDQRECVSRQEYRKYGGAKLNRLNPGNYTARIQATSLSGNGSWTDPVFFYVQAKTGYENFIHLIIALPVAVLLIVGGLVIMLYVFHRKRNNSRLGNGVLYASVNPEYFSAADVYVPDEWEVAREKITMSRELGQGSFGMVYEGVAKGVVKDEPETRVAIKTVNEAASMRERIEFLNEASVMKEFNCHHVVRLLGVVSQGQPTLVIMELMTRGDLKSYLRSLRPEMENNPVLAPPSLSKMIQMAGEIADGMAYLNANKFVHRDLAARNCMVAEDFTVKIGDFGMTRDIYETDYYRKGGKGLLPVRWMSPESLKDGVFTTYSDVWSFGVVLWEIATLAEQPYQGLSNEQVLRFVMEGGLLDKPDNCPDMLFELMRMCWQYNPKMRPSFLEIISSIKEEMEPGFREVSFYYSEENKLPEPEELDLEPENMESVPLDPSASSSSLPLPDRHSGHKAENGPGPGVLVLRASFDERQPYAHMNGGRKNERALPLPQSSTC

Chain of Vascular endothelial growth factor receptor 2 (P35968 whole entry): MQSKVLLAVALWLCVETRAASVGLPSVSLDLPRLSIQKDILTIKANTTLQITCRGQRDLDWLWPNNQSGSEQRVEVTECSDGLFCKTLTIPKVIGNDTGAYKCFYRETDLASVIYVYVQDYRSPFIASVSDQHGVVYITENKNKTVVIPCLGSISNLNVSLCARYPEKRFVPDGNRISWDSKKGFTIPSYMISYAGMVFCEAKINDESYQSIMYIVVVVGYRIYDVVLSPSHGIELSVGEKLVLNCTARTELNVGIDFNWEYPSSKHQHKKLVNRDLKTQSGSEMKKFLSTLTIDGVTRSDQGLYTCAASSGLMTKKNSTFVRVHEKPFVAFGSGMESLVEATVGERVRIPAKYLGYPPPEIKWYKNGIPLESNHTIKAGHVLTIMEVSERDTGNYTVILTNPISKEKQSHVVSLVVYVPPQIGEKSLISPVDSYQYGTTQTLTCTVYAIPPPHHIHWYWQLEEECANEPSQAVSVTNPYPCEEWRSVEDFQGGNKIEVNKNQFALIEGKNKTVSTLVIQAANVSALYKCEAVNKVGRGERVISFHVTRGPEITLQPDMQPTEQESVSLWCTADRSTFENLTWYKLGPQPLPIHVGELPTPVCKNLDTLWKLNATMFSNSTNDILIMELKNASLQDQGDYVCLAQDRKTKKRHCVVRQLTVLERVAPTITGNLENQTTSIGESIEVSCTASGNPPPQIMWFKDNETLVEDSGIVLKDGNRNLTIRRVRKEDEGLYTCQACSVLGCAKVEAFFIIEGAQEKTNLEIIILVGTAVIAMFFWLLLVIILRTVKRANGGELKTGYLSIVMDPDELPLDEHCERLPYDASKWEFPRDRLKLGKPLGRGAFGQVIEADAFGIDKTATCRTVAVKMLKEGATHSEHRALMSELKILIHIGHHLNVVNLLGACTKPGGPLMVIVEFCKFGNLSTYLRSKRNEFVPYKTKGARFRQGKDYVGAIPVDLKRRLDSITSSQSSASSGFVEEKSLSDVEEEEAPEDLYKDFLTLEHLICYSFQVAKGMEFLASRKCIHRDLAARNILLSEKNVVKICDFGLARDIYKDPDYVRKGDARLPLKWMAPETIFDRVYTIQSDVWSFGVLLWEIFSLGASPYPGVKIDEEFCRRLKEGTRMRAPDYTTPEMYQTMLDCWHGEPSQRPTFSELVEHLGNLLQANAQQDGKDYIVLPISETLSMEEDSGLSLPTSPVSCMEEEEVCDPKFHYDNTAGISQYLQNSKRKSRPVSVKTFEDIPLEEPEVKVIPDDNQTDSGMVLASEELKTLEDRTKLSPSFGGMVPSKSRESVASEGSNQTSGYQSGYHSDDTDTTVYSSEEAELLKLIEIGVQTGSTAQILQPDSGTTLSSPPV

| SMILES | EC50 [1] [nM] | IC50 [2] [nM] | other results |
| --- | --- | --- | --- |
| CN(C)C(=O)c1ccc2c(c1)NC(=O)/C2=C(\Nc1ccc(CN2CCCCC2)cc1)c1ccccc1 | 542 | 1310 |  |
| CNC(=O)c1ccc2c(c1)NC(=O)/C2=C(\Nc1ccc(CN2CCCCC2)cc1)c1ccccc1 | 1910 | 2100 |  |
| CC(=O)Nc1ccc2c(c1)NC(=O)/C2=C(\Nc1ccc(CN2CCCCC2)cc1)c1ccccc1 |  | > 3000 |  |
| COC(=O)c1ccc2c(c1)NC(=O)/C2=C(\Nc1ccc(NC(=O)CN2CCN(C)CC2)cc1)c1ccccc1 | 83 | 83 |  |
| COC(=O)c1ccc2c(c1)NC(=O)/C2=C(\Nc1ccc(NC(=O)CN(C)C)cc1)c1ccccc1 | 88 | 119 |  |
| COC(=O)c1ccc2c(c1)NC(=O)/C2=C(\Nc1ccc(CN2CCCC2=O)cc1)c1ccccc1 |  | 245 |  |
| COC(=O)c1ccc2c(c1)NC(=O)/C2=C(\NC1CCC(NC(=O)CN(C)C)CC1)c1ccccc1 (stereo unspecified) |  | > 10000 |  |
| COC(=O)c1ccc2c(c1)NC(=O)/C2=C(\Nc1cccc(C(=O)N(C)CCCN(C)C)c1)c1ccccc1 |  | 248 |  |
| COC(=O)c1ccc2c(c1)NC(=O)/C2=C(\NC1CCN(C)CC1)c1ccccc1 |  | > 10000 |  |
| CCN(C)C(=O)c1ccc2c(c1)NC(=O)/C2=C(\Nc1ccc(CN2CCCCC2)cc1)c1ccccc1 | 718 | 1450 |  |
| COC(=O)c1ccc2c(c1)NC(=O)/C2=C(\Nc1ccc(CN2CCCCC2)cc1)c1ccccc1 | 103 | 36 | half-life [3]: 3.5 h; IC50 [4]: 146 nM; AUC [5]: 5250 ng·h/mL; IC50 [6]: 54 nM; IC50 [7]: 71 nM; EC50 [8]: > 1000 nM; IC50 [9]: 32 nM; Cmax [10]: 952 ng/mL |
| O=C1Nc2cc(-n3cccc3)ccc2/C1=C(/Nc1ccc(CN2CCCCC2)cc1)c1ccccc1 | 585 | 791 |  |
| Nc1ccc2c(c1)NC(=O)/C2=C(\Nc1ccc(CN2CCCCC2)cc1)c1ccccc1 | 414 | 132 |  |
| NC(=O)c1ccc2c(c1)NC(=O)/C2=C(\Nc1ccc(CN2CCCCC2)cc1)c1ccccc1 | 342 | 763 | IC50 [11]: > 10000 nM; IC50 [12]: > 10000 nM; IC50 [13]: > 10000 nM; IC50 [14]: > 10000 nM; IC50 [15]: > 10000 nM; IC50 [16]: > 10000 nM; IC50 [17]: > 10000 nM |
| COC(=O)c1ccc2c(c1)NC(=O)/C2=C(\Nc1ccc(N(CC(=O)N(C)C)C(C)=O)cc1)c1ccccc1 | 37 | 8 |  |
| COC(=O)c1ccc2c(c1)NC(=O)/C2=C(\Nc1ccc(CN(C)C)cc1)c1ccccc1 |  | 64 |  |
